Key:
Experiment in all cases: relative viability (nuclei count vs DMSO), 5 days (fraction); higher = more cells survive
[1] = compound: C[C@]1(c2nc3c(C(N)=O)cccc3[nH]2)CCCN1 [Veliparib] + N=C(N)NC(=N)NCCc1ccccc1 [Phenformin] (partner 250 µM)
Procedure, shortened: (§1)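 Lung cancer cell lines in 1536-well plates were dosed by pin tool the day after seeding, either with one drug alone or with a fixed anchor-drug dose plus five library-drug doses (not always all listed) in √10 steps. After 5 days, cells were fixed and their nuclei stained in one step (final 0.05% Triton X-100, 1% formaldehyde, 1 ug/ml Hoechst), then counted on 4× images. Relative viability is the nuclei count in treated wells divided by that in vehicle wells. Values are medians of duplicate plates.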

[2] = compound: COC1=CC=C(C=C1)CN2C=CC3=C2C=C(C=C3)C(=O)NO + Cc1nc(Nc2ncc(C(=O)Nc3c(C)cccc3Cl)s2)cc(N2CCN(CCO)CC2)n1 [Dasatinib] (partner 0.075 µM)
Procedure, shortened: as §1

[3] = compound: C[C@]1(c2nc3c(C(N)=O)cccc3[nH]2)CCCN1 [Veliparib] + COc1cc2c(Oc3ccc(NC(=O)C4(C(=O)Nc5ccc(F)cc5)CC4)cc3F)ccnc2cc1OCCCN1CCOCC1 [Foretinib] (partner 0.25 µM)
Procedure, shortened: as §1

[4] = compound: COC1=CC=C(C=C1)CN2C=CC3=C2C=C(C=C3)C(=O)NO + Cc1nc(NC(=O)N2CCC[C@H]2C(N)=O)sc1-c1ccnc(C(C)(C)C(F)(F)F)c1 [Alpelisib] (partner 2 µM)
Procedure, shortened: as §1

Cell Line	relative viability ([1]; first compound 0.06325 µM)	relative viability ([1]; first compound 0.2 µM)	relative viability ([1]; first compound 0.6325 µM)	relative viability ([1]; first compound 2 µM)	relative viability ([2]; first compound 0.253 µM)	relative viability ([2]; first compound 0.8 µM)	relative viability ([2]; first compound 2.53 µM)	relative viability ([2]; first compound 8 µM)	relative viability ([3]; first compound 0.06325 µM)	relative viability ([3]; first compound 0.2 µM)	relative viability ([3]; first compound 0.6325 µM)	relative viability ([3]; first compound 2 µM)	relative viability ([4]; first compound 0.253 µM)	relative viability ([4]; first compound 0.8 µM)	relative viability ([4]; first compound 2.53 µM)	relative viability ([4]; first compound 8 µM)	relative viability ([1]; first compound 0.02 µM)	relative viability ([3]; first compound 0.02 µM)	relative viability ([2]; first compound 0.08 µM)	relative viability ([4]; first compound 0.08 µM)
NCI-H322M	0.641	0.814	0.724	0.747	0.255	0.255	0.262	0.226	0.948	0.871	1	0.937	0.726	0.769	0.845	0.656				
NCI-H358	0.316	0.337	0.32	0.351	0.152	0.192	0.157	0.126	0.647	0.623	0.625	0.573	0.941	0.985	0.919	0.829	0.226	0.723		
NCI-H441	0.986	0.855	0.72	0.876	0.621	0.623	0.567	0.485	0.738	0.992	0.877	0.948	0.8	0.644	0.917	0.554	0.915	0.905	0.613	0.711
NCI-H460	0.491	0.484	0.489	0.52	0.556	0.553	0.48	0.343	0.909	0.952	0.948	0.983	0.535	0.506	0.359	0.338	0.361	0.994	0.545	0.36
NCI-H520	0.558	0.761	0.538	0.578	0.228	0.213	0.232	0.281	0.763	0.805	0.601	0.647	1.16	0.887	0.904	0.853	0.709	0.824	0.16	0.43
NCI-H596	0.744	0.809	0.725	0.747	0.614	0.603	0.558	0.465	0.823	1.02	0.773	0.75	0.53	0.384	0.561	0.474	0.633	0.967	0.588	0.532
NCI-H647	0.405	0.563	0.505	0.597	0.198	0.179	0.186	0.186	1.15	1.29	1.15	0.977	1.23	1.16	1.21	0.954	0.438	1.35	0.126	0.981
NCI-H650	0.385	0.405	0.408	0.412	0.432	0.473	0.474	0.408	0.95	1.05	1	1.09	1.16	1.05	1.03	0.892	0.439	1.06	0.492	1.01
NCI-H661	0.289	0.25	0.274	0.264	0.985	0.957	0.802	0.579	1.02	0.866	0.892	0.998	0.464	0.595	0.512	0.626	0.299	0.999		
NCI-H727	0.443	0.549	0.483	0.521	0.315	0.437	0.417	0.303	0.66	0.816	0.694	1.04	0.515	0.626	0.654	0.562	0.481	1.22	0.349	0.525
NCI-H838	0.495	0.564	0.424	0.628	0.265	0.31	0.297	0.258	0.987	1.04	0.967	1.06	0.981	0.91	1.03	0.874	0.576	1.09		
NCI-H1355	0.425	0.46	0.423	0.442	0.764	0.717	0.698	0.679	0.879	0.965	0.932	0.982	0.892	0.905	0.883	0.901				0.793
NCI-H1395	0.421	0.437	0.393	0.408	0.381	0.431	0.446	0.35	0.898	0.957	0.795	0.806	1.1	1.11	0.979	0.967	0.355	0.956	0.394	0.708
NCI-H1437	0.237	0.357	0.253	0.299	0.339	0.469	0.466	0.395	1.17	1.2	1.24	1.23	1.04	0.958	0.953	1.01	0.311	1.12	0.332	0.827
NCI-H1563	0.638	0.686	0.643	0.667	0.485	0.436	0.433	0.399	0.917	1.03	0.918	1.05	0.947	0.946	0.964	0.839	0.594	0.845	0.435	0.798
NCI-H1651	0.34	0.379	0.279	0.316	0.452	0.43	0.358	0.331	0.74	0.762	0.724	0.692	1.06	0.964	0.789	0.723	0.286	0.793	0.311	0.993
NCI-H1666	0.507	0.544	0.487	0.534	0.783	0.887	0.873	0.822	0.96	0.997	0.895	0.964	1.04	1.01	1.04	1.36	0.546	1.01	0.831	1.07

Cell Line	relative viability ([1]; first compound 0.06325 µM)	relative viability ([1]; first compound 0.2 µM)	relative viability ([1]; first compound 0.6325 µM)	relative viability ([1]; first compound 2 µM)	relative viability ([2]; first compound 0.253 µM)	relative viability ([2]; first compound 0.8 µM)	relative viability ([2]; first compound 2.53 µM)	relative viability ([2]; first compound 8 µM)	relative viability ([3]; first compound 0.06325 µM)	relative viability ([3]; first compound 0.2 µM)	relative viability ([3]; first compound 0.6325 µM)	relative viability ([3]; first compound 2 µM)	relative viability ([4]; first compound 0.253 µM)	relative viability ([4]; first compound 0.8 µM)	relative viability ([4]; first compound 2.53 µM)	relative viability ([4]; first compound 8 µM)	relative viability ([1]; first compound 0.02 µM)	relative viability ([3]; first compound 0.02 µM)	relative viability ([2]; first compound 0.08 µM)	relative viability ([4]; first compound 0.08 µM)
NCI-H1734	0.379	0.383	0.33	0.455	0.492	0.547	0.536	0.382	0.85	0.886	0.832	0.836	0.676	0.717	0.622	0.689	0.358	0.797		
NCI-H1755	0.629	0.631	0.518	0.608	0.466	0.414	0.444	0.397	0.915	0.935	0.893	0.91	0.964	0.913	0.995	0.928	0.637	0.947	0.37	0.819
NCI-H1793	0.384	0.466	0.329	0.361	0.354	0.382	0.4	0.412	0.608	0.814	0.747	0.794	0.874	0.786	0.546	0.728	0.392	0.652		0.626
NCI-H1915	0.36	0.345	0.36	0.361	0.333	0.314	0.303	0.27	0.975	1.03	0.92	0.969	1.07	1.06	1.08	1.02	0.379	1.09	0.326	1.02
NCI-H1944	0.188	0.207	0.197	0.204	0.215	0.235	0.237	0.204	0.906	0.731	0.817	0.813	0.897	0.731	0.774	0.795	0.211	0.806		
NCI-H1975	0.395	0.407	0.368	0.397	0.413	0.447	0.359	0.325	0.96	0.903	0.881	0.979	0.711	0.644	0.592	0.547	0.434	1.12	0.342	0.699
NCI-H1993	0.567	0.561	0.552	0.482	0.633	0.647	0.665	0.572	0.7	0.789	0.828	0.79	0.671	0.669	0.745	0.795	0.568	0.674	0.569	0.613
NCI-H2009	0.452	0.483	0.457	0.473	0.284	0.326	0.276	0.197	1.21	1.17	1.2	1.28	1.17	1.05	1.24	1.09	0.455	1.35	0.281	1.15
NCI-H2023	0.417	0.39	0.384	0.411	0.596	0.592	0.577	0.439	0.691	0.852	0.885	0.788	0.646	0.507	0.586	0.639	0.39	0.78	0.553	0.58
NCI-H2085	0.734	0.795	0.652	0.699	0.293	0.221	0.225	0.214	0.787	0.909	0.647	1.15	0.981	1.1	0.969	1.02			0.235	0.968
NCI-H2087	0.467	0.428	0.435	0.486	0.941	0.989	0.983	0.653	1.04	0.999	1.16	1.08	1.08	1.21	1.13	0.864	0.334	1.04	0.93	1.08
NCI-H2126	0.535	0.519	0.498	0.541	0.673	0.655	0.61	0.547	1.2	1.26	1.31	1.1	0.798	0.744	0.804	0.836	0.556	1.19	0.591	0.738
NCI-H2170	0.41	0.415	0.401	0.459	0.687	0.711	0.69	0.541	1	0.963	0.942	1.03	0.941	0.837	0.793	0.838	0.472	0.977	0.456	0.714
NCI-H2228	0.301	0.276	0.284	0.236	0.458	0.662	0.497	0.413	0.731	0.845	0.737	0.957	0.659	0.773	0.893	0.741	0.209	0.794		0.764
NCI-H2347	0.273	0.473	0.464	0.366	0.246	0.337	0.329	0.325	0.545	0.763	0.802	0.844	1.14	1.03	1.18	1.01	0.426	0.977	0.248	0.763
NCI-H2405	0.371	0.411	0.393	0.308	0.214	0.221	0.196	0.177	0.937	1.08	1.03	1.07	0.784	0.804	0.797	0.675	0.388	1.09	0.209	0.474

— the supplement of paper PMC10307832
